Data on eight compounds can be found in patent US20100215618A1, “NOVEL COMPOUNDS - 644” (Arrow Therapeutics Limited, priority 2009, published 2010).

In general, Papp refers to a coefficient for how fast a substance crosses the barrier. Lower therefore signals slow passage.

Data set [1] concerns HCV replicon cells Huh 9B. It counts as cell-based. The note with it: Huh 9B replicon cells, 72 h, methylene blue, total cell area reduced by 50%. How it is done:
HCV replicon cells Huh 9B (ReBlikon), containing the firefly luciferase-ubiquitin-neomycin phosphotransferase fusion protein and EMCV-IRES driven HCV polyprotein with cell culture adaptive mutations.
Replicon cells were trypsinised and counted. Cells were diluted to 100,000 cells/ml and 100 μl used to seed one opaque white 96-well plate (for the replicon assay) and one flat-bottomed clear plate (for the tox assay) for every five compounds to be tested for IC50. Wells G12 and H12 were left empty in the clear plate as the blank. Plates were then incubated at 37° C./5% CO2 for 24 h.
On the following day compound dilutions were prepared in medium at twice their desired final concentration in a clear round bottomed plate. All dilutions have a final DMSO concentration of 1%.
Controls and compounds were transferred from the dilution plates to the assay plates (containing the cells) at 100 μl/well in duplicate wells.
Exception: no compound was added to wells A1 and A2 of either plate and 100 μl of 1% DMSO was added to these instead. Plates were then incubated at 37° C./5% CO2 for 72 h.
The clear plate was stained with 100 μA 0.5% methylene blue in 50% ethanol at room temperature for 1 h, followed by solvation of the absorbed methylene blue in 100 μl per well of 1% lauroylsarcosine. Absorbance of the plate was measured on a microplate spectrophotometer (Molecular Devices) and the absorbance for each concentration of compound expressed as a proportion of the relative DMSO control. The TD50, the is concentration of drug required to reduce the total cell area by 50% relative to the DMSO controls, was calculated by plotting the absorbance at 620 nm after background substraction against drug concentration.
(In general: In antiviral work, replicon cells carry a viral genome segment that copies itself.)

The test system of data set [2] is HCV replicon cells Huh 9B (genotype 1b). Kind of data set: 1b Replicon Assay (luciferase readout). The note with it: Hepatitis C virus, Huh 9B replicon cells, 72 h, luciferase activity. It counts as cell-based.
A short description of data set [3]: in vitro. In kind it is in vitro ADME, Canine. The note with it: dog, MDCK. How it is done: Cells used: MDCK (Madin-Darby Canine Kidney) cells, ATCC collection # CCL-34, are used to model the intestinal barrier. Cell culture conditions: cells were cultured at 37° C. in a 5% CO2 environment and split twice a week on seeding at 4×10^5 cells/flask (75 cm^2) on day 1 and 2×10^5 cells/flask on day 4. The culture medium consisted of MEM+Earle's-L Glutamine (Gibco #21090-022) supplemented with 10% Australian Fetal Calf Serum (Sigma #F6178), 2 mM L-Glutamine (Gibco #25030-024) and 1× Non Essential Amino Acids (Gibco #11140-035)
On day 1, a 24-well plate (Sarstedt, #83.1836.300) was filled with individual 3 lam pore membrane inserts (Millipore, #PITP 012 50). Each plate allows the testing of a cocktail of 3 control compounds and 11 test compounds in duplicate. The wells (outside the inserts) were filled with 500 μl of culture medium.
A flask of cells was trypsinised and a cell count carried out. Cells were diluted to 1.2×10^5 cells/ml (1×10^5 cells/cm^2) and 500 μl dispensed in each insert on the 24-well plate. The plate was incubated at 37° C. in a 5% CO2 environment for 48 hours.
On day 3, the culture medium was removed from the wells, then the inserts and is replaced with fresh culture medium in the wells, then the inserts (500111 per well and insert) The plate was incubated at 37° C. in a 5% CO2 environment for 24 hours.
On day 4, the controls cocktail and test compounds solutions were made up in HBSS buffer (Hank's Balanced Salt Solution, Gibco #14025-050) at 1011M. The final controls and test compounds concentration in the assay was 10 μM, and DMSO concentration maintained at 0.1% (0.3% for the controls cocktail). The controls cocktail was made up of Atenolol (Sigma # A-7655), Dexamethasone (Sigma #D-1756) and Propranolol (Sigma # P-0884).
A 24-well plate was filled with 500 μl of HBSS buffer per well (assay plate) The culture medium was removed from the wells and inserts. The inserts were washed three times with approximately 500 μl of HBSS buffer. The inserts were transferred to the assay plate. Controls cocktail and test compounds solutions were dispensed inside the inserts (500 μl per insert), in duplicates. The assay plate was incubated at 37° C. in a 5% CO2 environment for 2 hours.
After 2 hours, the inserts were removed from the assay plate and transferred into a new 24-well plate (wash plate) The assay plate containing the receiver solutions was left aside for later sampling. To measure the mass balance, 150 μl were sampled from each insert (donor solutions) and dispensed into 150 μl of HPLC-grade Acetonitrile (Fisher Scientific) containing an internal standard and 0.05% formic acid.
The donor solutions were aspirated and discarded from each insert, and the inserts washed once with approximately 500 μl of HBSS buffer. A 24-well plate was filled with 500 μl of HBSS buffer per well (monolayer integrity plate) A Lucifer Yellow (Sigma #L0144) solution was made up at 1001.1M in HBSS buffer. The empty inserts were transferred into the monolayer integrity plate and filled with 500 μl of the Lucifer Yellow solution to determine the cell monolayers integrity and leftover of the solution was kept in a fridge. The plate was incubated at 37° C. in a 5% CO2 environment for 2 hours.
In the meantime, 150 μl were sampled from the assay plate (receiver solutions) and dispensed into 150 μl of HPLC-grade Acetonitrile containing an internal standard and 0.05% formic acid. A calibration curve was made for each mix of compounds (as appropriate depending on compounds molecular weights) A 10 μM mix of compounds in HBSS buffer was diluted 1:1 in HPLC-grade Acetonitrile containing an internal standard and 0.05% formic acid. A 1:1 mix of HBSS buffer and HPLC-grade Acetonitrile containing an internal standard and 0.05% formic acid was made up and used to make up the calibration curve (2 fold dilutions), with concentrations ranging from 10 μM to 0.078 μM. […]

The subject of data set [4] is HCV genotype 1a replicon cells Htat2ANeo. Kind of data set: 1a Replicon Assay (cell-based anti-NS5a ELISA). The note with it: Hepatitis C virus, 72 h. The essentials:
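HCV 1a Htat2ANeo replicon cells (Et2AN control cells) exposed to compound for 72 h at 37° C without G418/blasticidin. NS5a quantified by cell-based ELISA (anti-NS5a, HRP/OPD, A490); IC50 from percentage reduction versus untreated control. Cytotoxicity TD50 by Cell Titre Blue fluorescence (ex 570/em 590 nm) versus DMSO controls.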

Setting [5] is: read-out: pIC50 1b Replicon (converted).
Setting [6] is: read-out: pIC50 1a Replicon (converted).

Where two headings read alike, the source gives them in different places.

Regarding `COC(=O)N[C@@H](C(=O)N1CCC[C@H]1c1ncc(-c2ccc(-c3ccc(C(=O)Nc4ccc(CN5CCS(=O)(=O)CC5)cc4)cc3)cc2)[nH]1)C(C)C` [Example 13, Methyl N-[(1R)-1-[(2S)-2-[5-[4-[4-[[4-[(1,1-dioxo-1,4-thiazinan-4-yl)methyl]phenyl]carbamoyl]phenyl]phenyl]-1H-imidazol-2-yl]pyrrolidine-1-carbonyl]-2-methyl-propyl]carbamate], the “HCV TD50 Replicon” value in data set [1] was >25 µM. In addition, the values for the IC50 in data set [2] (read-out: HCV IC50 1b Replicon) and in data set [2] (setting [5]) were 42.2 nM and 41.7 nM, respectively. In addition, in data set [3], the apparent permeability (Papp) at 2 h, 10 µM came to 0.3 ×10⁻⁶ cm/s.
For `COC(=O)N[C@H](CC(C)C)C(=O)N1CCC[C@H]1c1ncc(-c2ccc(-c3ccc(C(=O)Nc4ccc(CN5CCS(=O)(=O)CC5)cc4)cc3)cc2)[nH]1` [Example 15, Methyl N-[(1R)-1-[(2S)-2-[5-[4-[4-[[4-[(1,1-dioxo-1,4-thiazinan-4-yl)methyl]phenyl]carbamoyl]phenyl]phenyl]-1H-imidazol-2-yl]pyrrolidine-1-carbonyl]-3-methyl-butyl]carbamate], in that order: >25 µM, 3.84 nM, 3.8 nM and 0.3 ×10⁻⁶ cm/s.
For `COC(=O)N[C@H](C(=O)N1CCC[C@H]1c1ncc(-c2ccc(-c3ccc(C(=O)Nc4ccc(CN5CCS(=O)(=O)CC5)cc4)cc3)cc2)[nH]1)[C@@H](C)O` [Example 17, Methyl N-[(1S,2R)-1-[(2S)-2-[5-[4-[4-[[4-[(1,1-dioxo-1,4-thiazinan-4-yl)methyl]phenyl]carbamoyl]phenyl]phenyl]-1H-imidazol-2-yl]pyrrolidine-1-carbonyl]-2-hydroxy-propyl]carbamate], in that order: 18.4 µM, 0.3 nM, 0.302 nM and 0.4 ×10⁻⁶ cm/s.
For `COC(=O)N[C@@H](C)C(=O)N1CCC[C@@H]1c1ncc(-c2ccc(-c3ccc(C(=O)Nc4ccc(CN5CCS(=O)(=O)CC5)cc4)cc3)cc2)[nH]1` [Example 21, Methyl N-[(1S)-2-[(2R)-2-[5-[4-[4-[[4-[(1,1-dioxo-1,4-thiazinan-4-yl)methyl]phenyl]carbamoyl]phenyl]phenyl]-1H-imidazol-2-yl]pyrrolidin-1-yl]-1-methyl-2-oxo-ethyl]carbamate], the results for the IC50 in data set [2] (read-out: HCV IC50 1b Replicon) and in data set [2] (setting [5]) were 418 nM and 417 nM, respectively. In data set [3], this compound returned an apparent permeability (Papp) at 2 h, 10 µM of 1.4 ×10⁻⁶ cm/s.
In the case of `COC(=O)N[C@H](C(=O)N1CCC[C@@H]1c1ncc(-c2ccc(-c3ccc(C(=O)Nc4ccc(CN5CCS(=O)(=O)CC5)cc4)cc3)cc2)[nH]1)C(C)(C)C` [Example 22, Methyl N-[(1S)-1-[(2R)-2-[5-[4-[4-[[4-[(1,1-dioxo-1,4-thiazinan-4-yl)methyl]phenyl]carbamoyl]phenyl]phenyl]-1H-imidazol-2-yl]pyrrolidine-1-carbonyl]-2,2-dimethyl-propyl]carbamate], the IC50 in data set [2] (read-out: HCV IC50 1b Replicon) is 266 nM; in data set [2] (setting [5]) it was 263 nM. In data set [3], this compound yielded an apparent permeability (Papp) at 2 h, 10 µM of 0.55 ×10⁻⁶ cm/s.
On to `COC(=O)N[C@H](C(=O)N1CCOC[C@H]1c1ncc(-c2ccc(-c3ccc(C(=O)Nc4ccc(CN5CCS(=O)(=O)CC5)cc4)cc3)cc2)[nH]1)C(C)C` [Example 46, Methyl N-[(1S)-1-[(3R)-3-[5-[4-[4-[[4-[(1,1-dioxo-1,4-thiazinan-4-yl)methyl]phenyl]carbamoyl]phenyl]phenyl]-1H-imidazol-2-yl]morpholine-4-carbonyl]-2-methyl-propyl]carbamate], for which, in data set [1], the “HCV TD50 Replicon” value was >25 µM. Besides, the IC50 in data set [2] (read-out: HCV IC50 1b Replicon) was 0.71 nM; in data set [2] (setting [5]), 0.708 nM; in data set [4] (read-out: HCV IC50 Elisa 1a), 19.4 nM; in data set [4] (setting [6]), 19.5 nM.
For `CC(C)(C)OC(=O)N[C@H](C(=O)N1CCOC[C@H]1c1ncc(-c2ccc(-c3ccc(C(=O)Nc4ccc(CN5CCS(=O)(=O)CC5)cc4)cc3)cc2)[nH]1)c1ccccc1` [Example 48, tert-Butyl N-[(1S)-2-[(3R)-3-[5-[4-[4-[[4-[(1,1-dioxo-1,4-thiazinan-4-yl)methyl]phenyl]carbamoyl]phenyl]phenyl]-1H-imidazol-2-yl]morpholin-4-yl]-2-oxo-1-phenyl-ethyl]carbamate] the same measures were >25 µM, 0.51 nM, 0.513 nM, 52.6 nM and 52.5 nM.
Consider `CN(C)[C@@H](C(=O)N1CCOC[C@H]1c1ncc(-c2ccc(-c3ccc(C(=O)Nc4ccc(CN5CCS(=O)(=O)CC5)cc4)cc3)cc2)[nH]1)c1ccccc1` [Example 49, 4-[4-[2-[(3R)-4-[(2R)-2-(dimethylamino)-2-phenyl-acetyl]morpholin-3-yl]-1H-imidazol-5-yl]phenyl]-N-[4-[(1,1-dioxo-1,4-thiazinan-4-yl)methyl]phenyl]benzamide], for which the “HCV TD50 Replicon” value in data set [1] amounted to 19.7 µM. Also, the IC50 was 0.88 nM in data set [2] (read-out: HCV IC50 1b Replicon), 0.891 nM in data set [2] (setting [5]), 77.8 nM in data set [4] (read-out: HCV IC50 Elisa 1a) and 77.6 nM in data set [4] (setting [6]).
